Experimental data as given in ChEMBL document CHEMBL1201862, “PubChem BioAssay data set” (2004).
The source made the active and inactive calls.

Legend:
HEK293 [1] = assay: NOD1 signaling inhibitors, primary screen, cell-based, luminescence, uHTS (AID 1578); type: functional; settings: Homo sapiens
HEK293 [2] = assay: cells; type: functional, cell-based; settings: Homo sapiens
HEK293 [3] = assay: cells; type: functional, cell-based; settings: Homo sapiens; remark: listed apart in the source
HEK293 [4] = assay: NOD2 signaling inhibitors in MDP-stimulated cells, cell-based, uHTS, luminescence (AID 2001); type: functional; settings: Homo sapiens
[5] = target: Nucleotide-binding oligomerization domain-containing protein 1 (Homo sapiens, UniProt Q9Y239); assay: NOD1 signaling inhibitors, SAR follow-up, revised (AID 2333); type: functional
INS1 = assay: beta cell apoptosis inhibitors, cytokine rescue, dose response, luminescence, retest (AID 449756); type: functional, cell-based; settings: Rattus norvegicus;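 note: cell death triggered by IL-1 beta plus TNF-alpha plus IFN-gamma mixture; protective hits raise ATP signal compared with cytokine alone wells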
[6] = Shn3 3'UTR reporter inhibitors, dose response, cell-based, Clone20 osteoblasts, firefly luciferase, cherry-picked (AID 624132); type: functional;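 note: firefly luciferase luminescence from reporter carrying the Shn3 3'UTR in osteoblasts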
[7] = HepG2 cell cytotoxicity, dose response, cytotoxicity control for Shn3 inhibitor project, CellTiter-Glo, cherry-picked (AID 624134); type: functional, cell-based
[8] = control 3'UTR Renilla luciferase suppression, dose response, counter-screen for Shn3 inhibitor project, cell-based, Clone20-Shn3RL, cherry-picked (AID 624133); type: functional
HEK293 [9] = assay: cells; settings: Homo sapiens
[10] = target: T1, Dual specificity protein phosphatase 3 (Homo sapiens, UniProt P51452); assay: VHR1 phosphatase inhibitors, primary screen, biochemical, absorbance, uHTS (AID 1654)
[11] = target: T2, Voltage-gated N-type calcium channel alpha-1B subunit/Amyloid beta A4 precursor protein-binding family A member 1 (Homo sapiens, UniProt Q00975+Q02410); type: protein assay
[12] = target: T2, Voltage-gated N-type calcium channel alpha-1B subunit/Amyloid beta A4 precursor protein-binding family A member 1; type: protein assay; remark: listed apart in the source
[13] = target: Induced myeloid leukemia cell differentiation protein Mcl-1 (Homo sapiens, UniProt Q07820); assay: MCL1-BIM BH3 interaction inhibitors, dose response, biochemical, fluorescence polarization, BIM-BH3 peptide, 1536-well (AID 2217)
[14] = target: T1, Dual specificity protein phosphatase 3; assay: VHR1 phosphatase inhibitors, biochemical (AID 1878)
Bcl-2-like protein 1 = Bcl-2-like protein 1 (Homo sapiens, UniProt Q07817); assay: BCL-XL inhibitors, dose response, selectivity assay for MCL1 inhibitor project, biochemical, fluorescence polarization, 1536-well (AID 2218)
[15] = target: Dual specificity protein phosphatase 6 (Rattus norvegicus, UniProt Q64346); assay: MKP-3 phosphatase inhibitors, primary screen, biochemical, rat enzyme, in vitro (AID 425)
Beta-galactosidase = Beta-galactosidase (Escherichia coli, UniProt Q8VNN2); assay: beta-galactosidase enzyme inhibitors and activators, dose response, artefact control for CCR6 antagonist project, biochemical, E. coli enzyme, set 3 (AID 504712); type: functional
[16] = target: T3, Replicative DNA helicase DnaB (Mycobacterium tuberculosis, UniProt P9WMR3); assay: DnaB intein splicing inhibitors, dose response, biochemical, cell-free fluorescence (AID 449749); type: functional
T3 sequence (P9WMR3 whole entry): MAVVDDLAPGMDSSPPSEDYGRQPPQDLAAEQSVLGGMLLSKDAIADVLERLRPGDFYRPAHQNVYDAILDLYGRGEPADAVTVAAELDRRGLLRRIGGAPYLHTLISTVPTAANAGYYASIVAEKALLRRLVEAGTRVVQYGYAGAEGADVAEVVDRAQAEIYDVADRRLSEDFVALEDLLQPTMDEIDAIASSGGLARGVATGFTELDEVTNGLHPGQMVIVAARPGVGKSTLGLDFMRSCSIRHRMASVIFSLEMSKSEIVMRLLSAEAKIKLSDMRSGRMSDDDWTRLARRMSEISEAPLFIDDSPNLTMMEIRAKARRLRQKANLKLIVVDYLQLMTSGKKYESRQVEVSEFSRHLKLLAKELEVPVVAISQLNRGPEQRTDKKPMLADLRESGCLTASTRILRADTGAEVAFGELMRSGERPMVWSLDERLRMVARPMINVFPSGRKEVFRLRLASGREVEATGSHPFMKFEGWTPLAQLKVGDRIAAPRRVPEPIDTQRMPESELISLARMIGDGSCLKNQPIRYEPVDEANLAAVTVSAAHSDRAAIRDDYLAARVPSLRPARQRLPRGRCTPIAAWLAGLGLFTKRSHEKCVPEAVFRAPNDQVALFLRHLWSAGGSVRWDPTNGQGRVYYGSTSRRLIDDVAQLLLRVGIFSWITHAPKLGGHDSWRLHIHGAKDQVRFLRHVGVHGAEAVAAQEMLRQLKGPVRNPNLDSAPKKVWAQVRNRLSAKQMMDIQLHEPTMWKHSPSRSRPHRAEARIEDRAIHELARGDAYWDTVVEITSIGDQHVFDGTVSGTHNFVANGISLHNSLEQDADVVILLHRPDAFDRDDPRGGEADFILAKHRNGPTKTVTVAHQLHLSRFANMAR

Protein RecA = target: T4, Protein RecA (Mycobacterium tuberculosis, UniProt P9WHJ3); assay: Fluorescence Cell-Free Homogeneous Dose Retest to Identify Inhibitors of RecA-Intein Splicing Activity. [Related pubchem assays (depositor defined):AID2097, AID2223, AID489010, AID492950]; type: functional
T4 sequence (P9WHJ3 whole entry): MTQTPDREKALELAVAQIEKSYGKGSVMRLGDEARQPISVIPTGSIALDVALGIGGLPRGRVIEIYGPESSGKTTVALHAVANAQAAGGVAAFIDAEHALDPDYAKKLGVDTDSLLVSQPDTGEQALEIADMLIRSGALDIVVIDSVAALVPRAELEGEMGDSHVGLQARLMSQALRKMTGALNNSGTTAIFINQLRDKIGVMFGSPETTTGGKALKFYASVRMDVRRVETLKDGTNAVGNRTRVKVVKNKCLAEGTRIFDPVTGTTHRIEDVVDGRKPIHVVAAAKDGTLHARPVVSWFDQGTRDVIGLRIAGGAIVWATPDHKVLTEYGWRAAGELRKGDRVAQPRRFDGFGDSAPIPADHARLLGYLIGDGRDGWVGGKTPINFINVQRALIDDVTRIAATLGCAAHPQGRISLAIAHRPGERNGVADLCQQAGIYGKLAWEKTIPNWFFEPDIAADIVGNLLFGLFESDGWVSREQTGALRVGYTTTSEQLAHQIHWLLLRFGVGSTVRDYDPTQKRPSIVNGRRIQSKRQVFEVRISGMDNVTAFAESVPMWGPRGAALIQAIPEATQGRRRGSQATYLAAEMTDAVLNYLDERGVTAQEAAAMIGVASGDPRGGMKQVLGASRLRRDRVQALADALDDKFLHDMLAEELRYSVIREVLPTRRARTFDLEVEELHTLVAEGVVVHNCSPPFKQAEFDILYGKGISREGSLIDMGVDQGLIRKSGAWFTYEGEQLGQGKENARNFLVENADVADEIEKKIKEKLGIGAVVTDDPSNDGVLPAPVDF

Genome polyprotein = Genome polyprotein (dengue virus type 2, UniProt P29990); assay: Dengue-2 NS5 methyltransferase inhibitors, primary screen, biochemical, confirmation dose response (AID 588689); type: functional

T2 sequence (Q00975 whole entry): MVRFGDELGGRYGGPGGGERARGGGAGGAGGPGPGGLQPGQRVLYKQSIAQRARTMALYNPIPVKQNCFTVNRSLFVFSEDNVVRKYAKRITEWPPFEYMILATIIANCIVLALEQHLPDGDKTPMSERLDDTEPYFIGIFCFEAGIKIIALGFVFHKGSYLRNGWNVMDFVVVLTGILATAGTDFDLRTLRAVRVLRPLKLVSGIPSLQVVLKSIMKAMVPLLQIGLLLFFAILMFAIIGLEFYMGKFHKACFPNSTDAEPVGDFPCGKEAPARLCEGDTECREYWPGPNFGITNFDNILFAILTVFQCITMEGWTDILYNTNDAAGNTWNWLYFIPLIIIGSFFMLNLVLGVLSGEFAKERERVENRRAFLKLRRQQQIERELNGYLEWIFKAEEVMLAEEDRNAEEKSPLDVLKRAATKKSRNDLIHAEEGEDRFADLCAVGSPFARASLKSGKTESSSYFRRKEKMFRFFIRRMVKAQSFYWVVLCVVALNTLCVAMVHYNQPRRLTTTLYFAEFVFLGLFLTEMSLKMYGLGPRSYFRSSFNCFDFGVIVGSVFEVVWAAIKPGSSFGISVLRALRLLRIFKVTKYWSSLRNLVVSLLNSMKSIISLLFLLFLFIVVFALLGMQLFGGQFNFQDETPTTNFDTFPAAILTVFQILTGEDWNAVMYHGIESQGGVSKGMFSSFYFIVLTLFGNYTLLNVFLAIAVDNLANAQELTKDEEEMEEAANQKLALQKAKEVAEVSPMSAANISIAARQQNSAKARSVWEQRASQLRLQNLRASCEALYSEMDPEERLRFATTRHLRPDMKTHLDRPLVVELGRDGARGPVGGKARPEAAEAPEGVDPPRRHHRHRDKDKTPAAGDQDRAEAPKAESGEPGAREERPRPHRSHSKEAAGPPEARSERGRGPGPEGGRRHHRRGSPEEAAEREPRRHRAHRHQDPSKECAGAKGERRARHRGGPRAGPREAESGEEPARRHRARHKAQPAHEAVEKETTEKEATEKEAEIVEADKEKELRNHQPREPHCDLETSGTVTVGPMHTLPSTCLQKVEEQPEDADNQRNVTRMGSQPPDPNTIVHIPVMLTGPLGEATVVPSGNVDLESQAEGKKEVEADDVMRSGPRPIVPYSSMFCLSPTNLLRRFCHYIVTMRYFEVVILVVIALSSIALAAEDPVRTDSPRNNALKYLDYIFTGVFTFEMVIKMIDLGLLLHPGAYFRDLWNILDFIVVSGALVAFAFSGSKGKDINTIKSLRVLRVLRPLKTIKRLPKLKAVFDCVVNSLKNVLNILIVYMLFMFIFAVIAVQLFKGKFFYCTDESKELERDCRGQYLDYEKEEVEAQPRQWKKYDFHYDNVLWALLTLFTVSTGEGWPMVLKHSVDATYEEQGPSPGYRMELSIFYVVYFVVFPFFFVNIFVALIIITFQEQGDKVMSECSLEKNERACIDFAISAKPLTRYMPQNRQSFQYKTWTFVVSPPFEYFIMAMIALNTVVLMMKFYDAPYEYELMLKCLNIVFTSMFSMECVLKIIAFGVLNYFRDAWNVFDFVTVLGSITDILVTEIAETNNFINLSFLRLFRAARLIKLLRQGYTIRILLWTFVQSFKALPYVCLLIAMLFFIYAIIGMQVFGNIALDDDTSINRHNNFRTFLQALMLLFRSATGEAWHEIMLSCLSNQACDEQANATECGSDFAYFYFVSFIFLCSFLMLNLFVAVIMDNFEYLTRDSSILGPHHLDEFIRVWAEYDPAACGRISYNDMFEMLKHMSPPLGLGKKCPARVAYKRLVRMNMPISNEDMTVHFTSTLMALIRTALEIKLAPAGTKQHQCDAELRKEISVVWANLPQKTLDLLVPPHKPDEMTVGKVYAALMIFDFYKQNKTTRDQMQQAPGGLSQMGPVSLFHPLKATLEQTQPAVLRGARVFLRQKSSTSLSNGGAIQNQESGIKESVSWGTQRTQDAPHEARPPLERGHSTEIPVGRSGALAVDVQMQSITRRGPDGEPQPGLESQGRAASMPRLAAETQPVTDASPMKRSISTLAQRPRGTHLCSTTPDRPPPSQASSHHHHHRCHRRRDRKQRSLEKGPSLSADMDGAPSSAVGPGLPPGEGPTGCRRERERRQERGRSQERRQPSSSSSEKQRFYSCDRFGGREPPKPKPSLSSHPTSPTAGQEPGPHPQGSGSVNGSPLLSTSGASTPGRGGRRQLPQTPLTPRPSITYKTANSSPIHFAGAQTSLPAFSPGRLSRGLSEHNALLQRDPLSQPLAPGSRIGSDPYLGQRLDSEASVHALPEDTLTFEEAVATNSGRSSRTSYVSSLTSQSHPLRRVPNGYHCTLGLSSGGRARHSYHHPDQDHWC
T2 sequence (Q02410 whole entry): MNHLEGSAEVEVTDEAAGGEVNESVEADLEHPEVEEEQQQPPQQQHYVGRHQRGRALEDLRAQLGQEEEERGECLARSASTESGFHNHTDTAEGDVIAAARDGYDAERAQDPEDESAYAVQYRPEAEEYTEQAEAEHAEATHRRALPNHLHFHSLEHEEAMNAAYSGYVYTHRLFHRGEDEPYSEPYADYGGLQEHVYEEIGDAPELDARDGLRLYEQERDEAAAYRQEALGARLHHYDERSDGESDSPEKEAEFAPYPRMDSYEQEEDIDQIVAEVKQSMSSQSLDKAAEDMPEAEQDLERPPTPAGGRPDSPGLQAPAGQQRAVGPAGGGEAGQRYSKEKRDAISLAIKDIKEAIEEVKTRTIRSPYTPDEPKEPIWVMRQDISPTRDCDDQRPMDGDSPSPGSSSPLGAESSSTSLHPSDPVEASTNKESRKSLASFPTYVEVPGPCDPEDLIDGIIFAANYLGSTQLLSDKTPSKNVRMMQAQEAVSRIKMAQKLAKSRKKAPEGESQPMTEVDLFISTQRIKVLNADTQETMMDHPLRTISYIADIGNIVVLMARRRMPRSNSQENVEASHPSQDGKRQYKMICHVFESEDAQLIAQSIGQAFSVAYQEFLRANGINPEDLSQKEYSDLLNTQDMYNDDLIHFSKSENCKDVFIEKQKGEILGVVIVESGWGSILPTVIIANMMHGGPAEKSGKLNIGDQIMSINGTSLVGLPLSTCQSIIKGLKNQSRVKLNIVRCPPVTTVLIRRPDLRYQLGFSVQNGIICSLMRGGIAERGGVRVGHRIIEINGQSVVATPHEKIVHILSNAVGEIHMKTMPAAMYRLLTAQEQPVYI
T1 sequence (P51452 whole entry): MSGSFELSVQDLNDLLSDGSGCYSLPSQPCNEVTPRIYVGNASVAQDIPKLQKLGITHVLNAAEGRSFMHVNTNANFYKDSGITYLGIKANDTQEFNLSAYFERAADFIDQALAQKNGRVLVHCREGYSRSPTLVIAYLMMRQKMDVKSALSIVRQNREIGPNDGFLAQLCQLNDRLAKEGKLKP
Sequence of Dual specificity protein phosphatase 6 (Q64346 whole entry): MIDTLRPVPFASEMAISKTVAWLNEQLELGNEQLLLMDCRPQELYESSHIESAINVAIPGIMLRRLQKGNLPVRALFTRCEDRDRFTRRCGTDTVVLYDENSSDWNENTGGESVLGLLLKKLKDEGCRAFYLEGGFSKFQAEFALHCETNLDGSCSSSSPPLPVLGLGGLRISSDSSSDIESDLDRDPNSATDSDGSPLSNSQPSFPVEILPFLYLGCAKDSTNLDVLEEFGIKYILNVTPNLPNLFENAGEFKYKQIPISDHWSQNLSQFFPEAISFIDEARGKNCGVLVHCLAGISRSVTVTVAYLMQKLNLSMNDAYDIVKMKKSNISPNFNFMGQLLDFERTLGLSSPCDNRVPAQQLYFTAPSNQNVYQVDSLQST
Sequence of Beta-galactosidase (Q8VNN2 whole entry): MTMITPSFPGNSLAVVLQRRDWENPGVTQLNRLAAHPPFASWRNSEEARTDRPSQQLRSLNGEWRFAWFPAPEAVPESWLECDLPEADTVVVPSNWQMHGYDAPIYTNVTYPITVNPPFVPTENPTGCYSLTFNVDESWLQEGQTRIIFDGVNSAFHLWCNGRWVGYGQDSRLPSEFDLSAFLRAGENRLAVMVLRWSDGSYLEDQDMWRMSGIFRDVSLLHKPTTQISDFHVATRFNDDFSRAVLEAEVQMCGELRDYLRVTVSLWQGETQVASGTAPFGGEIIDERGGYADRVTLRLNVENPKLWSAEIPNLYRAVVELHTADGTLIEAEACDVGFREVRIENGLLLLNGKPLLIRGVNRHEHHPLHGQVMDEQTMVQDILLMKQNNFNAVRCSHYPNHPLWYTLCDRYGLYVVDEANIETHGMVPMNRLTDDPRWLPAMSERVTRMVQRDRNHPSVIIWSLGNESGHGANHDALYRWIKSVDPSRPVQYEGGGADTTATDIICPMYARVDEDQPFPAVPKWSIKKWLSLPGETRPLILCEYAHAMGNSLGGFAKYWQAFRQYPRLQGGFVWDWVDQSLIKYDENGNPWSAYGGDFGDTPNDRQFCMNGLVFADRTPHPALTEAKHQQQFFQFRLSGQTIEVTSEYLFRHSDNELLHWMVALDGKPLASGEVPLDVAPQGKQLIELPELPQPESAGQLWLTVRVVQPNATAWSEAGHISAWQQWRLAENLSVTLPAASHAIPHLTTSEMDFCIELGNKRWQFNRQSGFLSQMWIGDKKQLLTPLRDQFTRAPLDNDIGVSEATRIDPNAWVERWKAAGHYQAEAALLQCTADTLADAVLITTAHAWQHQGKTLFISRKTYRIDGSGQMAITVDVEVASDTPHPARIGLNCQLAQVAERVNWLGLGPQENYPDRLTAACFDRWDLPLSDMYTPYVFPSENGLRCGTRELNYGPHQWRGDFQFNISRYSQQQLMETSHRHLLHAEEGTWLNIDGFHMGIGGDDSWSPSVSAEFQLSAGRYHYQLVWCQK
Sequence of Bcl-2-like protein 1 (Q07817 whole entry): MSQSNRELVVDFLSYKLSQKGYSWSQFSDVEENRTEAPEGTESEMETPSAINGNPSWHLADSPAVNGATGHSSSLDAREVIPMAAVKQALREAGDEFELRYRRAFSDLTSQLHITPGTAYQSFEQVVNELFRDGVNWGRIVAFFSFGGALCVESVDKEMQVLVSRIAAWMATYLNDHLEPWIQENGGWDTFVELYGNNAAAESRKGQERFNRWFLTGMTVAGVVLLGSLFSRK

CC1Sc2ccc(S(=O)(=O)N3CCC(C(=O)Nc4ccc(Cl)cc4)CC3)cc2NC1=O (stereo unspecified)
active: EC50 (HEK293 [1]) 2.15 µM | IC50 (HEK293 [2]) 3.16 µM | IC50 (HEK293 [3]) 8.24 µM | IC50 (HEK293 [4]) 3.93 µM | IC50 [5] 3.11 µM | AC50 (INS1) 4.55 µM | AC50 [6] 2.42 µM | AC50 [7] 3.26 µM | AC50 [8] 1.6 µM | IC50 (HEK293 [9]) 7.68 µM

O=C(CN1C(=O)/C(=C2\SC(=S)N(CCS(=O)(=O)O)C2=O)c2ccccc21)Nc1cccc(Br)c1
inactive: IC50 [12] > 50 µM | IC50 (Beta-galactosidase) > 66.6 µM
> 109 µM (not active): IC50 (Bcl-2-like protein 1)
active: IC50 [10] 3.65 µM | IC50 [11] 9.59 µM | IC50 [13] 2 µM | IC50 [14] 4.92 µM | IC50 [15] 30 µM | AC50 [16] 12.4 µM | EC50 (Protein RecA) 7.59 µM | IC50 (Genome polyprotein) 21.6 µM
